Results from publication PMC10755728, “Inhibitors of the Elastase LasB for the Treatment of Pseudomonas aeruginosa Lung Infections” (ACS Central Science, 2023).
Like-named read-outs stand apart in the source and are kept apart here.

Assays:
MMP-2 = biological target: T1, MMP-2 (Homo sapiens, UniProt P08253); experiment: MMP-2 inhibition assay; assay type: biochemical; conditions: 100 μM; read-out: % inhibition MMP-2
T1 construct: purchased AnaSpec (Fremont, CA, USA)
T1 sequence (P08253 110-660): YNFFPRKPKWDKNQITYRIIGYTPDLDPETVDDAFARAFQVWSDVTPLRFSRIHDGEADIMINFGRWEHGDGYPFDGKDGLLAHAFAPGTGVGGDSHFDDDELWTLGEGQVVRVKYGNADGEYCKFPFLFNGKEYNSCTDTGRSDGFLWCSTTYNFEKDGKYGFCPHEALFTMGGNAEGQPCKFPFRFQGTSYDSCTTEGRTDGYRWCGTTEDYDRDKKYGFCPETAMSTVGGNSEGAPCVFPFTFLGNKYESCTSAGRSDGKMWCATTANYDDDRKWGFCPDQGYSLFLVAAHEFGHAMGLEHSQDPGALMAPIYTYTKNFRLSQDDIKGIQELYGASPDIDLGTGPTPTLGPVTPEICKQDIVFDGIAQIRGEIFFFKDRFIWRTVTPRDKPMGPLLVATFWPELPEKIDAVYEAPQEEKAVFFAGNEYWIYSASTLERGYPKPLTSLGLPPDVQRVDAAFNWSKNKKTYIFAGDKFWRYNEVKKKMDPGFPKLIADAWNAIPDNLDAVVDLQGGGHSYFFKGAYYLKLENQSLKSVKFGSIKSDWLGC

[1] = Metabolic stability in mouse liver S9 fraction; assay type: in vitro ADME
HDAC-8 = biological target: T2, HDAC-8 (Homo sapiens, UniProt Q9BY41); experiment: HDAC-8 inhibitor screening kit; assay type: biochemical
T2 construct: purchased Sigma-Aldrich (Saint Louis, MO)
T2 sequence (Q9BY41 1-377): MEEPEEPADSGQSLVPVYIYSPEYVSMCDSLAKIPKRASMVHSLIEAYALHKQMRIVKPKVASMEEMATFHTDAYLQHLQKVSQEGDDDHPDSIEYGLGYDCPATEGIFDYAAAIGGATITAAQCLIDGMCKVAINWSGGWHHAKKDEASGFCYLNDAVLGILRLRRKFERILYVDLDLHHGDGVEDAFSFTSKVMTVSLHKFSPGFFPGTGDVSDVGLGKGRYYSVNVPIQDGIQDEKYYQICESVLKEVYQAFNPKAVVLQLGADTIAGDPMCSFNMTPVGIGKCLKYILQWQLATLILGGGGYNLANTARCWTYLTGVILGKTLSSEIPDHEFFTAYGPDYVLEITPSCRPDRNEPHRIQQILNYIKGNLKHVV

HDAC-3 = biological target: T3, HDAC-3 (Homo sapiens, UniProt O15379); experiment: HDAC-3 inhibitor screening kit; assay type: biochemical
T3 construct: purchased Sigma-Aldrich (Saint Louis, MO)
T3 sequence (O15379 whole entry): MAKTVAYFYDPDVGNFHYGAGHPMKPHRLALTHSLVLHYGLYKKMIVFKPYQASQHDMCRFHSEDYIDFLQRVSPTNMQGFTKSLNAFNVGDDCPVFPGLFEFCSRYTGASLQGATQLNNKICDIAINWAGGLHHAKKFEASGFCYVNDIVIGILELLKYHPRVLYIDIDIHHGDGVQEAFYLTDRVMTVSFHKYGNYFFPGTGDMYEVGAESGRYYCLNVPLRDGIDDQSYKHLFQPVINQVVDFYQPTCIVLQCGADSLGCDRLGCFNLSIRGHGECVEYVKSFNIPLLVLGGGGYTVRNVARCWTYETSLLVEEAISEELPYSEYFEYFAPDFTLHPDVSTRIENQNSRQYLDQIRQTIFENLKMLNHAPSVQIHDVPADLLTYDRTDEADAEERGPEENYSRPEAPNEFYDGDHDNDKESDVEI
T3 sequence (Q9Y618 395-489 partner limits assumed): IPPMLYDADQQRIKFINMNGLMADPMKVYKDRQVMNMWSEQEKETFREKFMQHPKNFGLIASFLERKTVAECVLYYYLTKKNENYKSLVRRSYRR

[2] = mouse, in vivo
MMP-1 = biological target: T4, MMP-1 (Homo sapiens, UniProt P03956); experiment: MMP-1 inhibition assay; assay type: biochemical; conditions: 100 μM; read-out: % inhibition MMP-1
T4 construct: purchased AnaSpec (Fremont, CA, USA)
T4 sequence (P03956 100-469): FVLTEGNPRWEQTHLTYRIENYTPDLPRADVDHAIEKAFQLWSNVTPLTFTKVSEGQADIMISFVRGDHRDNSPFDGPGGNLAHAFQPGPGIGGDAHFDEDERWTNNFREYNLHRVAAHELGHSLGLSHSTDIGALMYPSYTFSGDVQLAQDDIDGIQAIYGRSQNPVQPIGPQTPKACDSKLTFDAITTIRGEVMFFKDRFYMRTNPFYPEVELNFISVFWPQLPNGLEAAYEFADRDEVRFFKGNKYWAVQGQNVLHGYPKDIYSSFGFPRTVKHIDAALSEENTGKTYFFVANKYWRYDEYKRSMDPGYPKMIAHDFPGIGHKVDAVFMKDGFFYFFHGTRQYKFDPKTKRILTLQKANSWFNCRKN

HEK293 = conditions: human, 48 h, 100 µM
COX-1 = biological target: T5, COX-1 (Ovis aries, UniProt P05979); experiment: Fluorometric COX-1 inhibitor assay; assay type: biochemical, human
T5 construct: purchased Abcam (Cambridge, UK)
T5 sequence (P05979 25-600): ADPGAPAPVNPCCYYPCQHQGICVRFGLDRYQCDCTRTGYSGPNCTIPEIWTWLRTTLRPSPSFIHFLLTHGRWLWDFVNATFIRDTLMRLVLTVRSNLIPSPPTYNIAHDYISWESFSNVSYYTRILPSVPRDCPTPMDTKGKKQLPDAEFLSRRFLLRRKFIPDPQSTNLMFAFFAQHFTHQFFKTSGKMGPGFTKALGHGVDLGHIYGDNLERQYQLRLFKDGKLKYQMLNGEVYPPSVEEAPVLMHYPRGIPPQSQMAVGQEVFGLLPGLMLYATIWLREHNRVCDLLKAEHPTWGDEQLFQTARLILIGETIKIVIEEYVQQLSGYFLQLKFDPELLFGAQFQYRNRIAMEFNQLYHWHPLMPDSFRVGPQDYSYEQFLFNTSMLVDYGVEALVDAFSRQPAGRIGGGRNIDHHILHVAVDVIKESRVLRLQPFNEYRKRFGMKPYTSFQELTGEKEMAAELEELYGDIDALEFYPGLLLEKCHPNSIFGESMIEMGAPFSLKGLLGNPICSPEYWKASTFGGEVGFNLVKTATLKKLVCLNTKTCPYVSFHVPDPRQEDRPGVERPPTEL

[3] = Lipophilicity determination (LogD7.4, HPLC-MS); assay type: physicochemical; conditions: for chromatographic logD: pH 7.4, pH 7.4, chromatographic
Procedure: Lipophilicity determination. LogD7.4 was analyzed using an HPLC−MS based method.50 The retention time of 12 compounds with known LogD7.4 was determined and plotted toward their LogD7.4. Linear regression was used to determine the LogD7.4 of unknown compounds. Analysis was performed using a Dionex Ultimate 3000 HPLC system coupled to a TSQ Quantum Access MAX (Thermo Fisher, Dreieich, Germany) with the following conditions: EC150/2 NUCLEODUR C18 Pyramid column, 5 μM (Macherey Nagel, Düren, Germany); eluent A: 50 mM NH4OAc pH 7.4, eluent B: acetonitrile, and flow: 0.6 mL/min.

HepG2 = conditions: human, 48 h, 100 µM
Procedure: Culturing of HepG2, A549 and HEK293 cells. The human hepatocellular carcinoma cell line HepG2, the lung adenocarcinoma cell line A549 and Human Embryonic (HEK) 293 cells were cultured in Dulbecco's Modified Eagle Medium (DMEM), containing 10% Fetal Bovine Serum
(FBS) and 1% penicillin-streptomycin mixture. Cells were maintained according to standard cell
Cytotoxicity assay. An MTT-based assay was employed to evaluate the viability of HepG2,
HEK293 and A549 cells after challenge with selected LasB inhibitors and performed as described

Plasma stability, mouse = assay type: in vitro ADME; conditions: for half-life at 1 μM: mouse plasma, read-out: Plasma T1/2 Mouse; for half-life: C57BL6, mouse, pooled plasma, species profiling, read-out: Plasma T1/2 Mouse (C57BL6)
LasB [4] = biological target: T6, LasB (Pseudomonas aeruginosa, UniProt Q02RJ6); experiment: biochemical; assay type: biochemical
T6 construct: made in house
T6 sequence (Q02RJ6 198-498): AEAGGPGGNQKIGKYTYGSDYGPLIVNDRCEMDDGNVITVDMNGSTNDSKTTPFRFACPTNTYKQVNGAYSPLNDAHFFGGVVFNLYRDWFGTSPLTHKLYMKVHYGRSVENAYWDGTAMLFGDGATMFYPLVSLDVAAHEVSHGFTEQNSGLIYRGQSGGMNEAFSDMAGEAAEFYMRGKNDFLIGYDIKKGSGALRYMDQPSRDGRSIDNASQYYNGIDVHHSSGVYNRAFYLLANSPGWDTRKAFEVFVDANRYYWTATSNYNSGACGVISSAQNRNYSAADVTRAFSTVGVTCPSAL

Calu-3 permeability = assay type: in vitro ADME; conditions: human
MMP-3 = biological target: T7, MMP-3 (Homo sapiens, UniProt P08254); experiment: MMP-3 inhibition assay; assay type: biochemical; conditions: 100 μM; read-out: % inhibition MMP-3
T7 construct: purchased AnaSpec (Fremont, CA, USA)
T7 sequence (P08254 100-477): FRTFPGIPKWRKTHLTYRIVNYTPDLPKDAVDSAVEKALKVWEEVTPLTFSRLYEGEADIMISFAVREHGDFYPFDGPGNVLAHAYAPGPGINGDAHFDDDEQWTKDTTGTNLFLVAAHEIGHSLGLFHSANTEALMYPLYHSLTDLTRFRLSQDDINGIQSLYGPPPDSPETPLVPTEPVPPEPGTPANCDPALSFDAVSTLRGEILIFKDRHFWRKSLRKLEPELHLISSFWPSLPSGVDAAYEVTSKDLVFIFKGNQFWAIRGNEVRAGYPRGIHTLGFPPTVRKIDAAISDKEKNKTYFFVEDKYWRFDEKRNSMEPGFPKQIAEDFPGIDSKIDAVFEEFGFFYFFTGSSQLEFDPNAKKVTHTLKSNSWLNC

[5] = Metabolic stability in human liver S9 fraction; assay type: in vitro ADME
Plasma stability, rat = assay type: in vitro ADME; conditions: Wistar, pooled plasma, species profiling, read-out: Plasma T1/2 Rat (Wistar)
[6] = Microsomal stability, rat liver microsomes; assay type: in vitro ADME; conditions: Wistar, pooled liver microsomes
[7] = Microsomal stability, minipig liver microsomes; assay type: in vitro ADME; conditions: Göttingen, pooled liver microsomes
[8] = Plasma stability, minipig; assay type: in vitro ADME; conditions: Göttingen, pooled plasma, species profiling, read-out: Plasma T1/2 Minipig (Göttingen)
[9] = Microsomal stability, mouse liver microsomes; assay type: in vitro ADME; conditions: C57BL6, mouse, pooled liver microsomes
P. aeruginosa PA14 = experiment: Bacterial growth inhibition assay; assay type: cell-based, Pseudomonas aeruginosa; conditions: Pseudomonas aeruginosa, PA14; 100 µM compound concentration; read-out: Percent (%) growth inhibition of P. aeruginosa PA14
Procedure: Bacterial growth inhibition assay. Assays regarding the determination of the MIC were
performed as described recently for P. aeruginosa PA14.58

zebrafish embryos = experiment: Zebrafish embryo toxicity
Procedure: Zebrafish embryo toxicity. The experiment was performed according to a procedure described
in the literature55 with minor modifications using zebrafish embryos of the AB wild-type line at 1
day post fertilization (dpf).

ColH-PD = ColH-PD (Hathewaya histolytica, UniProt Q46085); experiment: biochemical; assay type: biochemical, Clostridium histolyticum; conditions: read-out: % inhibition ColH-PD @1 µM
Chain of ColH-PD (Q46085 331-721 limits assumed): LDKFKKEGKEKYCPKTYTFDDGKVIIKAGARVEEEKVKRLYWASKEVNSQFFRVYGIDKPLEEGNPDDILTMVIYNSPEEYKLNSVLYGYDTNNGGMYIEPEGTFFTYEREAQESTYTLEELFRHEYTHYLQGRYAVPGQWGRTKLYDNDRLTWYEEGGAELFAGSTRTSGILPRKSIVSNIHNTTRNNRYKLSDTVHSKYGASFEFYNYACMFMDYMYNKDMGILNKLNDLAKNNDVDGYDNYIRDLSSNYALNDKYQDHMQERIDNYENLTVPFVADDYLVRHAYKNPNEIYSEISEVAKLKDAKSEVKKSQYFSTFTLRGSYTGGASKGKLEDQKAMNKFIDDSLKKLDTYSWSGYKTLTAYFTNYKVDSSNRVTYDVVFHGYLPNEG

TACE = biological target: T8, TACE (Homo sapiens, UniProt P78536); experiment: TACE inhibitor screening kit; assay type: biochemical; conditions: 100 μM; read-out: % inhibition TACE
T8 construct: purchased Sigma-Aldrich (Saint Louis, MO)
T8 sequence (P78536 215-824): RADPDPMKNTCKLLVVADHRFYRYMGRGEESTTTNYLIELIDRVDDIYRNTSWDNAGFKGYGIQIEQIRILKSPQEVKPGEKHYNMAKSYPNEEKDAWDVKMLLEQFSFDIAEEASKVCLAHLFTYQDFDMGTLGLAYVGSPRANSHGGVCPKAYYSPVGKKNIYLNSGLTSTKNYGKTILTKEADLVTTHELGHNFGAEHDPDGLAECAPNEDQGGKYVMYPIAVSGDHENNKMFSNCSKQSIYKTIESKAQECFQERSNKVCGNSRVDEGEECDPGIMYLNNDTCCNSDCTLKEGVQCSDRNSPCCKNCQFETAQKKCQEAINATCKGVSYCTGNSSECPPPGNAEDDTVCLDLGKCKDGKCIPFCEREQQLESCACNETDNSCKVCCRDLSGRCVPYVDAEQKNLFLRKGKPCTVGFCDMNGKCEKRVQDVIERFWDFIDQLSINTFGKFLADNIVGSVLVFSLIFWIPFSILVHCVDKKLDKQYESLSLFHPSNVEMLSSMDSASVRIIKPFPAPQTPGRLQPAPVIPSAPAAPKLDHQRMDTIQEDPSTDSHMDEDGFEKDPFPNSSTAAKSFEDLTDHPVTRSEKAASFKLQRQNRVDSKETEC

3D lung organoids = experiment: Lung organoid assay; assay type: cell-based, human
[10] = tested on: Eurofins SafetyScreen44 panel; experiment: Off-target SafetyScreen44 panel; conditions: 10 μM
Text: Then, we assessed potential additional safety liabilities of 4a and 4b using the Eurofins SafetyScreen44 panel to identify the most important off-target interactions at an early stage. […] Furthermore, to gain a deeper insight into the potential clinical applicability, we investigated the toxicity of compounds in vivo on zebrafish embryos.
Off-Target Safety Screen44TM Panel.
Eurofins Cerep, according to their guidelines.
their Standard Operating Procedures.
Zebrafish embryo toxicity.

[11] = tested on: A549 cells treated with P. aeruginosa PAO1 and PA14 supernatants; experiment: A549 cells challenged with P. aeruginosa culture supernatants; conditions: PAO1 or PA14 csn
Procedure: Cells were maintained according to standard cell
PA14 csn production. The csn of wt PA14 and ΔlasB PA14 was produced as we previously
Validation of the effect of LasB inhibitors on A549 cells in vitro. The experiment was performed
as described previously.32 The Picrosirius red assay was performed by washing the csn-challenged
cells (± inhibitor) 3x with PBS followed by an incubation with Bouin solution (Sigma) at RT for
20 min. The cells were incubated with 0.1% Picrosirius red dye (ab150681) at RT for 2 h. Then,
they were washed once with 0.01 N HCl, and the matrix was dissolved in 0.01 N NaOH. The
absorption was measured at 570 nm using a PHERAstar plate reader (BMG Labtech). By dividing
the absorbance of each sample by the absorbance of the healthy sample, the relative collagen
quantity was determined. For each condition, the experiment was performed three times. To
determine the rescue of A549 cells treated with 5% wt PA14 csn using our compounds, the LasB
inhibitors were used at 2, 0.5, 0.1 and 0.05 µM. The compounds were incubated in F12K medium,
Cell detachment was then evaluated, and a Trypan Blue cell
cells/well were seeded into a flat bottom 96-well plate (Corning™ Costar™) and incubated at 37
were tested against 10% (v/v) P. aeruginosa PAO1 csn diluted in DMEM starting from 10 µM
and 20 µM, respectively. Compound was initially dissolved in DMSO, and a low final assay
concentration of 0.5% (v/v) was applied to minimize the proteolytic effect of DMSO on the
bacterial culture supernatant. In addition, cells were challenged with 10% (v/v) of ΔlasB PAO1 to

P. aeruginosa DSM-1117 = experiment: Neutropenic lung infection model (PD study); conditions: neutropenic mice, 24 h; 4b 10 mg/kg TID nebulized, levofloxacin 25 mg/kg IP
Procedure: For the therapeutic neutropenic
pneumonia model, female CD-1 mice, 8-weeks-old, (Charles River, Germany) were rendered
neutropenic by administration of 150 mg/kg and 100 mg/kg cyclophosphamide i.p. on day –4 and
–1, respectively. The inoculum was prepared as follows: on day -1 the P. aeruginosa strain DSM-
single colony was inoculated into LB medium (diluted 1:6 in water) containing 0.01% mucin and
incubated at 120 rpm and 37 °C.
washed twice in 0.9 % NaCl-solution. Then they were adjusted to an OD of 10. For infection with
P. aeruginosa an inoculum of 1.2x10^9 cfu/mL was used. At d0 mice were infected by nebulization
using an Aeroneb® nebulizer (Kent Scientific) of 20 µL 1.2x10^9 CFU/ml P. aeruginosa DSM-
To control bacterial burden after nebulization, two animals were used as inoculum control
group. The following groups were used: (1) vehicle control group, (2) levofloxacin group wit h
mg/kg inhaled TID (t= 2, 6 and 10 h) combined with levofloxacin at 25 mg/kg IP QD (t= 2 h p.i.).
After isolation of blood, lung was
removed, weighed, and homogenized in 3 mL 0.9% NaCl. For de termination of CFUs, suspensions
of homogenized organs were serially diluted, plated on agar plates and incubated overnight at 37
°C. CFUs were determined by manual counting.

LasB [12] = assay type: in vivo, mouse; conditions: compared to the vehicle group; 4b 10 mg/kg TID, levofloxacin 25 mg/kg
[13] = FRET-based assay, read-out: LasB IC50

Structure (SMILES): Cc1ccc(NC(=O)C(CC(C)C)C(=O)NO)cc1 (stereo not shown) [Compound 3g]
- inhibition at 100 µM (MMP-2): 26 ± 2%
- microsomal CLint at 1 μM [1]: 64 ± 10 µL/min/mg
- inhibition at 100 µM (HDAC-8): < 10%
- inhibition at 100 µM (HDAC-3): < 10%
- detection in ELF and lung tissue [2]: not detected
- inhibition at 100 µM (MMP-1): 29 ± 3%
- % growth inhibition HEK293 (HEK293): 12 ± 6%
- inhibition at 100 µM (COX-1): < 10%
- logD7.4 ([3]; pH 7.4, chromatographic): 1.81
- chromatographic logD [3]: > 1.8
- % growth inhibition HepG2 (HepG2): 26 ± 11%
- half-life at 1 μM (Plasma stability, mouse): > 2.5 h
- fold more potent compared to the best phosphonate inhibitor (LasB [4]): 2 fold
- fold improvement of LasB activity compared to thiol hit 1 (LasB [4]; vs 1): 30 fold
- Papp at 300 min (Calu-3 permeability): 9.8 ± 2.6 ×10⁻⁶ cm/s
- inhibition at 100 µM (MMP-3): 16 ± 7%
- microsomal CLint at 1 μM [5]: < 5.8 µL/min/mg

Structure (SMILES): CC(C)CC(C(=O)Nc1ccc(F)cc1)P(=O)(O)O (stereo not shown) [Compound 4h]
- microsomal CLint at 1 μM [1]: < 5.8 µL/min/mg
- half-life (Plasma stability, rat): > 4 h
- microsomal CLint [6]: < 11.6 µL/min/mg
- microsomal CLint [7]: < 11.6 µL/min/mg
- chromatographic logD [3]: -0.79
- half-life (Plasma stability, mouse): > 4 h
- half-life at 1 μM (Plasma stability, mouse): > 2.5 h
- IC50 (LasB [4]; [13]): 92.7 ± 21.6 nM
- fold less active than chlorine and bromine compounds (LasB [4]; vs 4i and 4j): 2 fold
- microsomal CLint at 1 μM [5]: < 5.8 µL/min/mg
- half-life [8]: > 4 h
- microsomal CLint [9]: < 11.6 µL/min/mg

Structure (SMILES): Cc1ccc(NC(=O)C(CC(C)C)P(=O)(O)O)cc1 (stereo not shown) [Compound 4a]
- inhibition at 100 µM (P. aeruginosa PA14): < 10%
- microsomal CLint at 1 μM [1]: < 5.8 µL/min/mg
- Survival rate (zebrafish embryos; 12.5 µM): 100%
- Screening observations (zebrafish embryos; 12.5 µM, 3 dpf): 1 edema
- Screening observations (zebrafish embryos; 12.5 µM, 4 dpf): 1 edema
- Screening observations (zebrafish embryos; 12.5 µM, 5 dpf): 1 nsb, 1 edema
- Survival rate (zebrafish embryos; 25 µM): 100%
- Survival rate (zebrafish embryos; 50 µM): 100%
- Screening observations (zebrafish embryos; 50 µM, 3 dpf): 1 edema
- Screening observations (zebrafish embryos; 50 µM, 4 dpf): 1 edema
- Screening observations (zebrafish embryos; 50 µM, 5 dpf): 1 nsb, 1 edema
- Survival rate (zebrafish embryos; 100 μM): 100%
- Screening observations (zebrafish embryos; 100 µM, 5 dpf): 3 nsb
- maximum tolerated concentration (MTC) (zebrafish embryos; zebrafish embryos): ≥ 100 µM
- inhibition at 1 µM (ColH-PD): < 10%
- inhibition at 100 µM (HDAC-8): < 10%
- half-life (Plasma stability, rat): > 4 h
- inhibition at 100 µM (HDAC-3): < 10%
- microsomal CLint [6]: < 11.6 µL/min/mg
- inhibition at 100 µM (COX-1): < 10%
- microsomal CLint [7]: < 11.6 µL/min/mg
- half-life (Plasma stability, mouse): > 4 h
- half-life at 1 μM (Plasma stability, mouse): > 2.5 h
- IC50 (LasB [4]; [13]): 51.2 ± 6.7 nM
- IC50 (LasB [4]; LasB IC50 in presence of 1% pulmonary surfactant, 1% pulmonary surfactant): 123 ± 56 nM
- microsomal CLint at 1 μM [5]: < 5.8 µL/min/mg
- inhibition at 100 µM (TACE): < 10%
- viability of lung organoids challenged with 5% PA14 csn (3D lung organoids; 5% PA14 csn, 48 h, MTT): improved in a dose-dependent manner
- toxic effects on nontreated lung organoids (3D lung organoids; concentrations tested up to 100 μM): did not have significant toxic effects
- half-life [8]: > 4 h
- microsomal CLint [9]: < 11.6 µL/min/mg
- inhibition of SafetyScreen44 targets [10]: no significant inhibition
- LasB-related cytotoxicity in csn-treated A549 cells [11]: dose-dependent reduction of LasB-related cytotoxicity

Structure (SMILES): C[C@H]1COc2c(N3CCN(C)CC3)c(F)cc3c(=O)c(C(=O)O)cn1c23 [levofloxacin, reference compound]
- effect on bacterial burden (CFU) in lung (P. aeruginosa DSM-1117): reduced the bacterial burden back to stasis
- LasB protein levels in blood (LasB [12]): clear reduction
